Source: article PMC12891850 (Acta Pharmaceutica Sinica. B, 2025)

Molecular target: T1, aldehyde oxidase 1 (AOX1) (Homo sapiens, UniProt Q06278)
T1 sequence (Q06278 1-1338): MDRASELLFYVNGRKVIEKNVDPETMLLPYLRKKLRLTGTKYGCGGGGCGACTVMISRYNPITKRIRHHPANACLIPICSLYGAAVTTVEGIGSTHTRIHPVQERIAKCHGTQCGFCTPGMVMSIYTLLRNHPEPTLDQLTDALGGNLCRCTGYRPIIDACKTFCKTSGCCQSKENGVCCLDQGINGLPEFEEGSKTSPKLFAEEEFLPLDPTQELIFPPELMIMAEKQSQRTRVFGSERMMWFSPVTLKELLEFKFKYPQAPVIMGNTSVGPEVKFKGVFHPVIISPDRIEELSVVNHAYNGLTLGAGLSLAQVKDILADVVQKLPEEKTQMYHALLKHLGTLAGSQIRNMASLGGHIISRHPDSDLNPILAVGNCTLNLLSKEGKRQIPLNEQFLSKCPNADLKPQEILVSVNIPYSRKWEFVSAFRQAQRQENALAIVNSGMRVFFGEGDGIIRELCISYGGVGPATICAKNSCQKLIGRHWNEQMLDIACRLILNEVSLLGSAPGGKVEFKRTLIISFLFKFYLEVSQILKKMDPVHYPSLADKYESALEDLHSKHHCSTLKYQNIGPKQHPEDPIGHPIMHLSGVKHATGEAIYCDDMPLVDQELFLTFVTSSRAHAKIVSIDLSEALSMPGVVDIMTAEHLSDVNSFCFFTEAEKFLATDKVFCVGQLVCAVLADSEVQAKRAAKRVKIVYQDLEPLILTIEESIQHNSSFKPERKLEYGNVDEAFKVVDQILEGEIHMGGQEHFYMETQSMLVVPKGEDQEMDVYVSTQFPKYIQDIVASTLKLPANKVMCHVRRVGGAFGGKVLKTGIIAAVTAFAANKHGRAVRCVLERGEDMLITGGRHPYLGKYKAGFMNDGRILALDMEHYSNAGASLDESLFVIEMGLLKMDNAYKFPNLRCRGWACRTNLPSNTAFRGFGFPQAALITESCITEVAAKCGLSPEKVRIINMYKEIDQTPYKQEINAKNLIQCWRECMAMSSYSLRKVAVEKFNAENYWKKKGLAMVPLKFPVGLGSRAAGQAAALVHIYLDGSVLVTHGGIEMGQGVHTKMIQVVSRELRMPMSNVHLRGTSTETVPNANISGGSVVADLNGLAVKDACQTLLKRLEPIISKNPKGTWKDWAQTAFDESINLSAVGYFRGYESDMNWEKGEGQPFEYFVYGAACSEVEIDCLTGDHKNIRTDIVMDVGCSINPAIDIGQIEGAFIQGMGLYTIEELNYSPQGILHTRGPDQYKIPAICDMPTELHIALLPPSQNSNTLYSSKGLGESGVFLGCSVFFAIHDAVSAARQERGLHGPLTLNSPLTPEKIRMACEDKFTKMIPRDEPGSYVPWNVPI
Experiment: SPR
Format: binding

Kd: 42.7 µM
SMILES: CNC(=O)c1cc(Oc2ccc(NC(=O)Nc3ccc(Cl)c(C(F)(F)F)c3)c(F)c2)ccn1 [regorafenib]
